Experimental data: PubChem BioAssay AID1963843 (Molecular Pharmacology Branch, DTP, NCI, 2024)

Tested on: 616215-338-R-J1-PDC complex spheroid viability
Assay: Anticancer human tumor 616215-338-R-J1-PDC patient-derived colon adenocarcinoma cell line growth inhibition [POLQ]
Conditions: for IC50: curve of first compound; for viability, T/C: stronger effect = lower value
Method in brief: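 PDC + HUVEC + MSC complex spheroids; POLQ inhibitors ± partner drugs; top conc. at/near clinical Cmax, else 10 microM (SN-38 1 microM), half-log dilutions; 37 degrees C, 5% CO2.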

[1] = second compound 0.0316 µM, first compound 0.0316 µM
[2] = second compound 0.0316 µM, first compound 0.1 µM
[3] = second compound 0.0316 µM, first compound 0.316 µM
[4] = second compound 0.0316 µM, first compound 1 µM
[5] = second compound 0.0316 µM, first compound 3.16 µM
[6] = second compound 0.0316 µM, first compound 10 µM
[7] = second compound 0.1 µM, first compound 0.0316 µM
[8] = second compound 0.1 µM, first compound 0.1 µM
[9] = second compound 0.1 µM, first compound 0.316 µM
[10] = second compound 0.1 µM, first compound 1 µM
[11] = second compound 0.1 µM, first compound 3.16 µM
[12] = second compound 0.1 µM, first compound 10 µM
[13] = second compound 0.316 µM, first compound 0.0316 µM
[14] = second compound 0.316 µM, first compound 0.1 µM
[15] = second compound 0.316 µM, first compound 0.316 µM
[16] = second compound 0.316 µM, first compound 1 µM
[17] = second compound 0.316 µM, first compound 3.16 µM
[18] = second compound 0.316 µM, first compound 10 µM
[19] = second compound 1 µM, first compound 0.0316 µM
[20] = second compound 1 µM, first compound 0.1 µM
[21] = second compound 1 µM, first compound 0.316 µM
[22] = second compound 1 µM, first compound 1 µM
[23] = second compound 1 µM, first compound 3.16 µM
[24] = second compound 1 µM, first compound 10 µM
[25] = second compound 3.16 µM, first compound 0.0316 µM
[26] = second compound 3.16 µM, first compound 0.1 µM
[27] = second compound 3.16 µM, first compound 0.316 µM
[28] = second compound 3.16 µM, first compound 1 µM
[29] = second compound 3.16 µM, first compound 3.16 µM
[30] = second compound 3.16 µM, first compound 10 µM
[31] = second compound 10 µM, first compound 0.0316 µM
[32] = second compound 10 µM, first compound 0.1 µM
[33] = second compound 10 µM, first compound 0.316 µM
[34] = second compound 10 µM, first compound 1 µM
[35] = second compound 10 µM, first compound 3.16 µM
[36] = second compound 10 µM, first compound 10 µM
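Further: spheroids exposed to compounds for one week before readout.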
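Wherever viability, T/C is given: percent viability relative to DMSO vehicle wells taken as 100%.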

Structure (SMILES): C=CC(=O)N1CCN(c2nc(=O)n(-c3c(C)ccnc3C(C)C)c3nc(-c4c(O)cccc4F)c(F)cc23)C(C)C1 (stereo not drawn) + COC1C(OC(N)=O)C(O)C(Oc2ccc3c(O)c(NC(=O)c4ccc(O)c(CC=C(C)C)c4)c(=O)oc3c2C)OC1(C)C
- IC50 (second compound 0.0316 µM): > 10 µM
- IC50 (second compound 0.1 µM): > 10 µM
- IC50 (second compound 0.316 µM): > 10 µM
- IC50 (second compound 1 µM): > 10 µM
- IC50 (second compound 3.16 µM): > 10 µM
- IC50 (second compound 10 µM): > 10 µM
- viability, T/C [1]: 105%
- viability, T/C [2]: 99.7%
- viability, T/C [3]: 98.4%
- viability, T/C [4]: 108%
- viability, T/C [5]: 113%
- viability, T/C [6]: 106%
- viability, T/C [7]: 98.4%
- viability, T/C [8]: 98.1%
- viability, T/C [9]: 98%
- viability, T/C [10]: 93.3%
- viability, T/C [11]: 104%
- viability, T/C [12]: 87.8%
- viability, T/C [13]: 104%
- viability, T/C [14]: 99.7%
- viability, T/C [15]: 99.6%
- viability, T/C [16]: 95%
- viability, T/C [17]: 107%
- viability, T/C [18]: 95.8%
- viability, T/C [19]: 96.9%
- viability, T/C [20]: 95.8%
- viability, T/C [21]: 94%
- viability, T/C [22]: 101%
- viability, T/C [23]: 105%
- viability, T/C [24]: 90.6%
- viability, T/C [25]: 94.8%
- viability, T/C [26]: 103%
- viability, T/C [27]: 94.3%
- viability, T/C [28]: 95%
- viability, T/C [29]: 104%
- viability, T/C [30]: 70.4%
- viability, T/C [31]: 99.7%
- viability, T/C [32]: 94.3%
- viability, T/C [33]: 98%
- viability, T/C [34]: 102%
- viability, T/C [35]: 102%
- viability, T/C [36]: 83.6%

Structure (SMILES): COc1cc2cc(C(=O)CCC(=O)O)sc2cc1OC + Cc1cccc(N(C)C(=O)C2C(O)CCN2c2nc(C)cc(C(F)(F)F)c2C#N)c1
- IC50 (second compound 0.0316 µM): > 10 µM
- IC50 (second compound 0.1 µM): > 10 µM
- IC50 (second compound 0.316 µM): > 10 µM
- IC50 (second compound 1 µM): > 10 µM
- IC50 (second compound 3.16 µM): > 10 µM
- IC50 (second compound 10 µM): > 10 µM
- viability, T/C [1]: 99.9%
- viability, T/C [2]: 99.6%
- viability, T/C [3]: 92%
- viability, T/C [4]: 104%
- viability, T/C [5]: 117%
- viability, T/C [6]: 95.9%
- viability, T/C [7]: 100%
- viability, T/C [8]: 109%
- viability, T/C [9]: 109%
- viability, T/C [10]: 108%
- viability, T/C [11]: 116%
- viability, T/C [12]: 102%
- viability, T/C [13]: 96%
- viability, T/C [14]: 103%
- viability, T/C [15]: 102%
- viability, T/C [16]: 109%
- viability, T/C [17]: 103%
- viability, T/C [18]: 101%
- viability, T/C [19]: 105%
- viability, T/C [20]: 101%
- viability, T/C [21]: 95.2%
- viability, T/C [22]: 107%
- viability, T/C [23]: 106%
- viability, T/C [24]: 92.4%
- viability, T/C [25]: 110%
- viability, T/C [26]: 102%
- viability, T/C [27]: 104%
- viability, T/C [28]: 102%
- viability, T/C [29]: 112%
- viability, T/C [30]: 99.3%
- viability, T/C [31]: 109%
- viability, T/C [32]: 102%
- viability, T/C [33]: 99.6%
- viability, T/C [34]: 98.3%
- viability, T/C [35]: 119%
- viability, T/C [36]: 85.1%

Structure (SMILES): CCc1cc2c(N3CCc4c(cc(Cn5ccnc5)cc4-c4cn(C)nc4C(F)(F)F)C3=O)cc(C)nc2c(OC)n1 + COC1C(OC(N)=O)C(O)C(Oc2ccc3c(O)c(NC(=O)c4ccc(O)c(CC=C(C)C)c4)c(=O)oc3c2C)OC1(C)C
- IC50 (second compound 0.0316 µM): 8.7 µM
- IC50 (second compound 0.1 µM): 9.03 µM
- IC50 (second compound 0.316 µM): 6.27 µM
- IC50 (second compound 1 µM): 8.55 µM
- IC50 (second compound 3.16 µM): 8.18 µM
- IC50 (second compound 10 µM): 9.28 µM
- viability, T/C [1]: 101%
- viability, T/C [2]: 109%
- viability, T/C [3]: 109%
- viability, T/C [4]: 110%
- viability, T/C [5]: 60.5%
- viability, T/C [6]: 48.6%
- viability, T/C [7]: 106%
- viability, T/C [8]: 111%
- viability, T/C [9]: 99.5%
- viability, T/C [10]: 92.9%
- viability, T/C [11]: 64.6%
- viability, T/C [12]: 48.8%
- viability, T/C [13]: 106%
- viability, T/C [14]: 109%
- viability, T/C [15]: 99.7%
- viability, T/C [16]: 91%
- viability, T/C [17]: 59.8%
- viability, T/C [18]: 43.1%
- viability, T/C [19]: 113%
- viability, T/C [20]: 105%
- viability, T/C [21]: 104%
- viability, T/C [22]: 85.1%
- viability, T/C [23]: 57%
- viability, T/C [24]: 49.2%
- viability, T/C [25]: 113%
- viability, T/C [26]: 110%
- viability, T/C [27]: 102%
- viability, T/C [28]: 86.6%
- viability, T/C [29]: 76%
- viability, T/C [30]: 44.2%
- viability, T/C [31]: 115%
- viability, T/C [32]: 99.2%
- viability, T/C [33]: 95%
- viability, T/C [34]: 77.3%
- viability, T/C [35]: 53.8%
- viability, T/C [36]: 51.8%

Structure (SMILES): CCc1cc2c(N3CCc4c(cc(Cn5ccnc5)cc4-c4cn(C)nc4C(F)(F)F)C3=O)cc(C)nc2c(OC)n1 + Nc1ccc(C#CCN(C(=O)Cc2ncc(C(F)(F)F)cc2C(F)(F)F)c2ccc(F)cc2)nn1
- IC50 (second compound 0.0316 µM): 2.53 µM
- IC50 (second compound 0.1 µM): 2.96 µM
- IC50 (second compound 0.316 µM): 2.46 µM
- IC50 (second compound 1 µM): 2.41 µM
- IC50 (second compound 3.16 µM): 2.62 µM
- IC50 (second compound 10 µM): 1.42 µM
- viability, T/C [1]: 106%
- viability, T/C [2]: 108%
- viability, T/C [3]: 80.2%
- viability, T/C [4]: 62%
- viability, T/C [5]: 51%
- viability, T/C [6]: 38.5%
- viability, T/C [7]: 123%
- viability, T/C [8]: 101%
- viability, T/C [9]: 68.7%
- viability, T/C [10]: 60.9%
- viability, T/C [11]: 54.3%
- viability, T/C [12]: 40%
- viability, T/C [13]: 105%
- viability, T/C [14]: 111%
- viability, T/C [15]: 75.8%
- viability, T/C [16]: 61.5%
- viability, T/C [17]: 51.5%
- viability, T/C [18]: 40.1%
- viability, T/C [19]: 115%
- viability, T/C [20]: 108%
- viability, T/C [21]: 91.5%
- viability, T/C [22]: 57%
- viability, T/C [23]: 51.8%
- viability, T/C [24]: 41.9%
- viability, T/C [25]: 112%
- viability, T/C [26]: 111%
- viability, T/C [27]: 78.2%
- viability, T/C [28]: 63.6%
- viability, T/C [29]: 51.1%
- viability, T/C [30]: 38.4%
- viability, T/C [31]: 99.4%
- viability, T/C [32]: 98.2%
- viability, T/C [33]: 74.9%
- viability, T/C [34]: 53.3%
- viability, T/C [35]: 45.8%
- viability, T/C [36]: 41.4%
